Read-outs that look alike come from different tables or passages of the source. Starred links: 1 amine or outer side, 2 acyl side, 3 side chain; linkers in the order of their positions; H or OH if unused. Residues, ends and D or L forms follow the SMILES beside them. Groups on a side chain read outwards from the residue. *: point of attachment. C20 diacid = O=C(O)CCCCCCCCCCCCCCCCCCC(=O)*; C18 diacid = O=C(O)CCCCCCCCCCCCCCCCC(=O)*; γGlu = O=C(O)[C@H](CCC(=O)[*:2])N[*:1]; AEEA = NCCOCCOCC(=O)O
What was measured:
[1] = biological target: T1, human CRF2α receptor (Homo sapiens, UniProt Q13324); test: cAMP agonism at human CRF2 α receptor in TeloHEAC cells (Example 7); type: cell-based; conditions: cAMP HTRF, TeloHEAC cells stably expressing human CRF2 α
T1 construct: expressed in transfected cells; host or cells: TeloHEAC
T1 sequence (Q13324 1-411): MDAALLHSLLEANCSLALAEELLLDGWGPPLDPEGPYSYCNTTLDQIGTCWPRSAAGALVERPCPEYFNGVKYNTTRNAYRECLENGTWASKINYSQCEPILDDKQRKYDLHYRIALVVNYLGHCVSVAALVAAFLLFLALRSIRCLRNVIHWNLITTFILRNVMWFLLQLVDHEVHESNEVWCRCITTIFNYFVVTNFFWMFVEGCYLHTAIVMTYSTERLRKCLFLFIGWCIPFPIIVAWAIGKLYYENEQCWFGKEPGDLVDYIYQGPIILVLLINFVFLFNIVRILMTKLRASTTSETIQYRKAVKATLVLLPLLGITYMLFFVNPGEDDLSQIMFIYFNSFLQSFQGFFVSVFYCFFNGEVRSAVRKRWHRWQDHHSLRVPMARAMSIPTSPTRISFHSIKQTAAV
Method in brief: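 Percent activation was referenced to 1000 nM UCN2 (100%), and EC50 values taken as concentrations giving half of maximal response. The read-out was a homogeneous time-resolved fluorescence cAMP kit, fluorescence ratio 665/620 nm. Thawed cells (2000/well) saw compound for 30 min at RT in buffer with 2 mM IBMX and 0%/0.1% HSA.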

[2] = tested on: rat CRF2R α receptor; test: cAMP agonism at rat CRF2R α receptor in A7R5 rat aortic smooth muscle cells (Example 8); type: cell-based; conditions: cAMP HTRF, A7R5 rat aortic smooth muscle cell line, 0% HSA
Method in brief: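 Potency (EC50) is the concentration reaching half-maximal activation, with responses scaled so that 1000 nM urocortin 2 equals 100%. Intracellular cAMP was quantified by homogeneous time-resolved fluorescence at 665/620 nm, 1 h after lysis-buffer reagents. Compound stimulation lasted 30 min at room temperature on 2000 IBMX-treated (2 mM) cells per well in HEPES-buffered HBSS.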

[3] = biological target: T2, CRF1R receptor (Homo sapiens, UniProt P34998); test: cAMP activity at anti-target CRF1R, CRF1R-overexpression CHO cell line (Example 9); type: cell-based
T2 construct: host or cells: CHO-K1 clone 2
T2 sequence (P34998 24-415): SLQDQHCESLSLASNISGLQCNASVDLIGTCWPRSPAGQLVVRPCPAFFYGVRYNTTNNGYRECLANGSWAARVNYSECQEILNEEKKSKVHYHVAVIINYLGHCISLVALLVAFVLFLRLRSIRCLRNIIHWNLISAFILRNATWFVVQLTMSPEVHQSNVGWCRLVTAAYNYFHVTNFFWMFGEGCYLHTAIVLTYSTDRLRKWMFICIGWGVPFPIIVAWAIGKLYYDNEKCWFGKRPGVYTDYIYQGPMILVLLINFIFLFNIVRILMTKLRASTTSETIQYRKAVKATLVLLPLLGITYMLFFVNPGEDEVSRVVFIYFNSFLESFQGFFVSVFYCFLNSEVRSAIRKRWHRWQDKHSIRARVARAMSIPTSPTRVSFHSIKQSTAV
Method in brief: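 Using thawed CRF1R-overexpressing CHO cells at 2000 per well, compound is applied for 30 min at RT in HBSS/HEPES buffer with IBMX. Cellular cAMP content is determined via HTRF, and percent activity is calculated against 1000 nM UCN2 defined as 100%.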

[4] = Chemical stability, purity loss by UPLC-UV after 28 days at 40° C. vs 5° C., pH 4.5 acetate buffer (Example 12); type: physicochemical; conditions: 28 days 40° C. vs 5° C.; pH 4.5, 20 mM acetate buffer; 300 μM
Method in brief: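 300 μM compound (purity-corrected) in 20 mM acetate buffer, pH 4.5, stored 28 days at 5 and 40° C. Purity by UPLC-UV as compound peak area over total peak area. Value is the purity difference between 5° C. and 40° C. samples, relative to the 5° C. purity, in percent.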

[5] = Solubility in buffer systems by UPLC-UV (Example 13); type: physicochemical
Method in brief: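 Quantitation used UV peak area from UPLC of the 1:10-diluted supernatant, set against a reference-compound standard curve with extinction coefficients adjusted for amino acid sequence.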

[6] = 0% HSA, read-out: EC50 [nM], 0% HSA
[7] = 0.1% HSA, read-out: EC50 [nM], 0.1% HSA

Row | EC50 ([3]; 0% HSA, CRF1R-overexpression CHO cell line) [nM] | Emax ([3]; CRF1R-overexpression CHO cell line, read-out: Emax (%)) [%] | solubility at 1 h ([5]; pH 4.5, Solubility in Buffer B [mg/ml]) [µg/mL] | solubility at 1 h ([5]; pH 7.4, Solubility in Buffer C [mg/ml]) [µg/mL] | Structure (SMILES) | EC50 [1, 6] [nM] | EC50 [1, 7] [nM] | EC50 [2] [nM] | Relative purity loss [%] [4] [%] | Emax ([3]; CHO) [%] | solubility at 1 h ([5]; Buffer B: 100 mM acetate buffer, pH 4.5, 2.7 mg/ml m-cresol, target 10 mg/ml, read-out: Solubility in Buffer B) [µg/mL] | solubility at 1 h ([5]; Buffer C: 100 mM phosphate buffer, pH 7.4, target 10 mg/ml, read-out: Solubility in Buffer C) [µg/mL]
1 | > 1000 | 1.77 | > 8700 | > 9800 | CC[C@H](C)[C@H](N)C(=O)N[C@H](C(=O)N[C@@H](CC(C)C)C(=O)N[C@@H](CO)C(=O)N[C@@H](CC(C)C)C(=O)N[C@@H](CC(=O)O)C(=O)N[C@H](C(=O)N1CCC[C@H]1C(=O)N[C@H](C(=O)N[C@@H](CCCCN)C(=O)N[C@@H](CC(C)C)C(=O)N[C@@H](CCCCNC(=O)COCCOCCNC(=O)COCCOCCNC(=O)CC[C@H](NC(=O)CCCCCCCCCCCCCCCCC(=O)O)C(=O)O)C(=O)N[C@@H](CCCCN)C(=O)N[C@H](C(=O)N[C@@H](CC(C)C)C(=O)N[C@@H](CC(C)C)C(=O)N[C@@H](CCC(=O)O)C(=O)N[C@@H](CCC(N)=O)C(=O)N[C@@H](CCC(=O)O)C(=O)N[C@@H](CCCCN)C(=O)N[C@@H](CCC(N)=O)C(=O)N[C@@H](CCCCN)C(=O)N[C@@H](CCCCN)C(=O)N[C@@H](CCC(N)=O)C(=O)N[C@@H](CCCNC(=N)N)C(=O)N[C@@H](CCC(=O)O)C(=O)N[C@@H](CCC(N)=O)C(=O)N[C@@H](C)C(=O)N[C@@H](CCC(=O)O)C(=O)N[C@H](C(=O)N[C@@H](CC(N)=O)C(=O)N[C@@H](CCCCN)C(=O)N[C@@H](CCC(N)=O)C(=O)N[C@H](C(=O)N[C@@H](CC(C)C)C(=O)N[C@@H](C)C(=O)N[C@@H](CCC(N)=O)C(=O)N[C@H](C(N)=O)C(C)C)[C@@H](C)CC)[C@@H](C)O)[C@@H](C)CC)[C@@H](C)CC)C(C)C)C(C)C [compound 35] (H-IVLSLDVPIKLK([AEEA-AEEA-γGlu-C18 diacid])KILLEQEKQKKQREQAETNKQILAQV-NH2; N-terminus assumed) | 0.24 | 3.82 | 0.81 | 4.45 | – | – | –
2 | – | – | – | – | CC[C@H](C)[C@H](NC(=O)[C@H](CCC(N)=O)NC(=O)[C@H](CCC(=O)O)NC(=O)[C@H](CC(C)C)NC(=O)[C@H](CC(C)C)NC(=O)[C@H](CCC(N)=O)NC(=O)[C@H](CCCCN)NC(=O)[C@H](CC(N)=O)NC(=O)[C@H](CCCCN)NC(=O)[C@H](CCC(=O)O)NC(=O)[C@H](C)NC(=O)[C@H](CCC(N)=O)NC(=O)[C@H](CCC(N)=O)NC(=O)[C@H](CCCNC(=N)N)NC(=O)[C@H](CCC(=O)O)NC(=O)[C@H](CCCCN)NC(=O)[C@H](CCCCN)NC(=O)[C@H](CCC(N)=O)NC(=O)[C@H](CCCCN)NC(=O)[C@H](CCC(N)=O)NC(=O)[C@H](CCC(N)=O)NC(=O)[C@H](CCCCN)NC(=O)[C@H](CC(C)C)NC(=O)[C@H](CC(C)C)NC(=O)[C@@H](NC(=O)[C@H](CCC(N)=O)NC(=O)[C@H](CCCCNC(=O)COCCOCCNC(=O)COCCOCCNC(=O)CC[C@H](NC(=O)CCCCCCCCCCCCCCCCCCC(=O)O)C(=O)O)NC(=O)[C@@H](NC(=O)[C@H](CCCCN)NC(=O)[C@@H](NC(=O)[C@@H]1CCCN1C(=O)[C@@H](NC(=O)[C@H](CC(=O)O)NC(=O)[C@H](CC(C)C)NC(=O)[C@H](CO)NC(=O)[C@H](CC(C)C)NC(=O)[C@@H](NC(=O)[C@@H](N)Cc1ccccc1)[C@@H](C)O)C(C)C)[C@@H](C)O)[C@@H](C)CC)[C@@H](C)CC)C(N)=O [compound 59] (H-FTLSLDVPTKIK([AEEA-AEEA-γGlu-C20 diacid])QILLKQQKQKKERQQAEKNKQLLEQI-NH2) | 0.15 | 17.4 | 0.34 | 2.85 | 11.1 | > 9400 | > 9100
